Read-outs that look alike come from different tables or passages of the source.
Tests used:
[1] = AUC (area under the plasma concentration) after oral administration to mice
Procedure: (§1) The compounds of the present invention were orally administered to mice to evaluate AUC (area under the plasma concentration).
(§2) 8-week old BALB/cA male mice (Charles River Japan) were conditioned for one week after arrival and then used. Each test substance was dispersed in a medium containing 10% macrogol (Yoshida Seiyaku) and 90% physiological saline (Hikari Seiyaku) to prepare 5 mg/ml test substance suspension. Each prepared suspension was orally administered to 6 mice (30 mg/kg) at the same time, and cervical spine of one mouse was dislocated at each time, i.e., immediately after the administration, and 30 minutes, 1 hour, 2 hours, 4 hours and 6 hours after the administration. The whole blood was collected from abdominal aorta and blood level of the test substance was determined by liquid chromatography.

[2] = tested on: mouse peritoneal macrophages; experiment: Suppression of foaming of macrophages: cholesterol ester yield in mouse peritoneal macrophages loaded with liposomes; format: cell-based; conditions: for activity at 5 µM: Mus musculus, Peritoneal macrophage, 16 h, read-out: CE yield (%)
Procedure: Activity of the compounds of the present invention for suppressing the foaming of macrophages, which triggers arterial sclerosis, was examined.
(1) In vitro experiment using mouse peritoneal macrophages,
15-Week old female ICR mice (Nippon SLC) were subjected to bleeding by cutting off their cervicalis, and Hanks buffer (Nippon Seiyaku) was injected into their peritoneal cavities. After abdominal regions of the mice were massaged, the buffer was recovered immediately, and then the resulting buffer was centrifuged at 1,000 r.p.m. for five minutes to collect peritoneal macrophages. Then, the collected macrophages were suspended in GTI medium (Wako Pure Chemical Industries), and inoculated onto a 24-well microtiter plate. After the macrophages were cultivated at 37° C. under 5% CO2 for two hours, the culture medium was changed with Dulbecco Modified Eagle Medium (MEM, Nippon Seiyaku). The macrophages were further cultivated at 37° C. under 5% CO2 for 16 hours, and then a test compound and liposomes were added to the culture.
1) Test compound: dissolved in DMSO (Wako Pure Chemical Industries),
2) Liposomes: PC/PS/DCP/CHOL=50/50/10/75 (nmol)
After cultivation was further continued at 37° C. under 5% CO2 for 16 hours, lipid fraction was extracted with chloroform and methanol. The extracted lipid fraction was dissolved in isopropyl alcohol, and the produced cholesterol ester (CE) was quantified by an enzymatic luminescence method. Yield of the cholesterol ester was calculated as a relative ratio based on yield of the control as 100% where no test compound was added.

[3] = mouse, in vivo, po, 30 mg/kg
Procedure: as §1, §2

[4] = male, BALB/cA, mouse, plasma, po, 30 mg/kg
[5] = test compound 5 μM, cholesterol ester yield relative to control without test compound = 100%, smaller value = more potent suppression

AUC [1, 4] [ng·h/mL]	Compound	activity at 5 µM [2, 5] [%]	further results
1410	Cc1ccc2nc(SCCCCCOc3ccccn3)[nH]c2c1 [Compound 16, 5-methyl-2-(5-(2-pyridyloxy)pentylthio)benzimidazole]	14	
	c1ccc(OCCCCCCSc2nc3ccccc3[nH]2)nc1 [Compound 12, 2-(6-(2-pyridyloxy)hexylthio)benzimidazole]	13	
150	c1ccc(OCCCCCCCSc2nc3ccccc3[nH]2)nc1 [Compound 13, 2-(7-(2-pyridyloxy)heptylthio)benzimidazole]	20	
	c1ccc2[nH]c(SCCCCCNc3nc[nH]n3)nc2c1 [Compound 29, 2-(5-(3-(1,2,4-triazyl)amino)pentylthio)benzimidazole]		CE yield (%) [2, 5]: 12%; AUC [3]: 180 ng·h/mL
680	Clc1cc2nc(SCCCCCOc3ccccn3)[nH]c2cc1Cl [Compound 15, 5,6-dichloro-2-(5-(2-pyridyloxy)pentylthio)benzimidazole]	18	
230	c1ccc2[nH]c(SCCCCCNc3nc4ccccc4s3)nc2c1 [Compound 30, 2-(5-(2-benzothiazolylamino)pentylthio)benzimidazole]	4.2	
	c1ccc(OCCCCCCCCSc2nc3ccccc3[nH]2)nc1 [Compound 10, 2-(8-(2-pyridyloxy)octylthio)benzimidazole]	12	
240	c1ccc(OCCCCSc2nc3ccccc3[nH]2)nc1 [Compound 11, 2-(4-(2-pyridyloxy)butylthio)benzimidazole]	18	
110	Cn1c(OCCCCCSc2nc3ccccc3[nH]2)nc2ccccc21 [Compound 9]	6.2	
100	c1ccc2[nH]c(SCCCCCOc3nccs3)nc2c1 [Compound 5]	11	
	C=C(C)n1c(OCCCCCSc2nc3ccccc3[nH]2)nc2ccccc21 [Compound 20, 2-(5-(2-benzimidazolylthio)pentyloxy)-1-isopropenyl-benzimidazole]	22	
	CCC(=O)n1c(SCCCCCOc2ccccn2)nc2ccccc21 [Compound 24, 1-Propionyl-2-(5-(2-pyridyloxy)pentylthio)benzimidazole]	25	
680	c1ccc2[nH]c(SCCOCCOCCNc3nc4ccccc4o3)nc2c1 [Compound 36, 2-(2-(2-(2-(2-benzoxazolylamino)ethoxy)ethoxy)ethylthio)-benzimidazole]	12	
	COCn1c(SCCCCCNc2cnccn2)nc2ccccc21 [Compound 28, 1-methoxymethyl-2-(5-(N-(2-pyrazyl)amino)pentylthio)-benzimidazole]		CE yield (%) [2, 5]: 24%; AUC [3]: 410 ng·h/mL
	c1ccc2[nH]c(SCCCCCCNc3nc4ccccc4o3)nc2c1 [Compound 32, 2-(6-(2-benzoxazolylamino)hexylthio)benzimidazole]	12	
340	c1ccc(OCCCCCSc2nc3ccccc3[nH]2)nc1 [Compound 1, 2-(5-(2-pyridyloxy)pentylthio)benzimidazole]	4.1	
680	c1cnc(OCCCCCSc2nc3ccccc3[nH]2)nc1 [Compound 6]	12	
1220	COc1ccc2nc(SCCCCCOc3ccccn3)[nH]c2c1 [Compound 17, 5-methoxy-2-(5-(2-pyridyloxy)pentylthio)benzimidazole]	14	
	CC(=O)Nc1ccc2nc(SCCCCCOc3ccccn3)[nH]c2c1 [Compound 18, 5-acetylamino-2-(5-(2-pyridyloxy)pentylthio)benzimidazole]	19	
2420	c1ccc2[nH]c(OCCCCCSc3nc4ccccc4[nH]3)nc2c1 [Compound 21, 2-(5-(2-benzimidazolylthio)pentyloxy)benzimidazole]	18	
	2-(5-(1-phenyltetrazolyl-5-oxy)pentylthio)benzimidazole [Compound 2]		AUC ([1]; oral 30 mg/kg suspension, BALB/cA male mice, blood level 0 to 6 hours by liquid chromatography): 1220 ng·h/mL; CE yield (%) [2]: 21%
	c1ccc2[nH]c(SCCOCCNc3nc4ccccc4o3)nc2c1 [Compound 35, 2-(2-(2-(2-benzoxazolylamino)ethoxy)ethylthio)-benzimidazole]	9.7	
1210	c1ccc2[nH]c(SCCCCCCOc3ccncc3)nc2c1 [Compound 25, 2-(6-(4-pyridyloxy)hexylthio)benzimidazole]	2.8	
860	Cn1c(SCCCCCOc2ccccn2)nc2ccccc21 [Compound 23, 1-Methyl-2-(5-(2-pyridyloxy)pentylthio)benzimidazole]	21	
5520	c1ccc2[nH]c(SCCCCCOc3ccncc3)nc2c1 [Compound 19, 2-(5-(4-pyridyloxy)pentylthio)benzimidazole]	4.2	

Reference: patent US6787561B1, “Benzimidazole compounds” (Fuji Photo Film Co., Ltd., priority 1999, dated 2004)
